Laboratory results reported in patent US11000033B2, “Ketone or oxime compound, and herbicide” (NISSAN CHEMICAL CORPORATION, priority 2014, dated 2021).

Assays:
Type in all cases: in vivo
[1] = test system: Abutilon theophrasti; test: Test Example 5: herbicidal effect by foliage application, plastic box (symbol M); details: 320 g/ha, 3 weeks after application
Procedure, shortened: (§1)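 Post-emergence spray; diluvial soil (sterilized), ~1.5 cm seed cover; greenhouse 25–30° C; 14-day-old plants; water-diluted emulsion at predetermined dose; visual score at 3 wk post-treatment.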

[2] = test system: Setaria viridis; test: Test Example 4: herbicidal effect by soil treatment (symbol G); details: application herbicide amount 320 g/ha
Procedure, shortened: (§2)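 Seeds were sown in sterilized diluvial soil, covered with about 1.5 cm of soil, and the soil surface was sprayed with a water-diluted emulsion of the compound at a predetermined rate. Plants grew in a greenhouse at 25° C. to 30° C.; effects were scored visually 3 weeks after application.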

[3] = test system: Monochoria vaginalis; test: Test Example 2: herbicidal activity, application during weed generation in submerged conditions (symbol C); details: Table 23; application herbicide amount 320 g/ha; grade 0-5 by criteria of Test Example 1
Procedure, shortened: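 Flooded-soil post-emergence test: emulsion of compound, water-diluted to target rate, applied to paddy water surface at 1–2 leaf stage of mixed-sown weeds (alluvial soil, 4 cm water, 25–30° C. greenhouse); visual rating 3 weeks after application.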

[4] = test system: Scirpus juncoides; test: Test Example 1: herbicidal activity, application before weed generation in submerged conditions (symbol B); details: application herbicide amount 320 g/ha
Procedure, shortened: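 Pre-emergence, paddy conditions: emulsifiable formulation diluted in water, dosed onto floodwater (4 cm depth) on sowing day. Alluvial soil; weeds sown mixed; rice transplanted at 2.5-leaf stage. Greenhouse 25–30 °C, 3 wk. Score 0–5 (5 = ≥90% kill, 0 = ≤5%).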

[5] = test system: Avena fatua; test: Test Example 4: herbicidal effect by soil treatment (symbol I); details: application herbicide amount 320 g/ha
Procedure, shortened: as §2

[6] = test system: rice; test: Test Example 4: effect on crop by soil treatment (symbol b); details: application herbicide amount 320 g/ha
Procedure, shortened: (§3)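 Plants grew in a 25° C. to 30° C. greenhouse after spot-sowing of seeds, including beet, rapeseed, wheat and rice, into sterilized diluvial soil under roughly 1.5 cm of cover soil.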

[7] = test system: Apera spica-venti; test: Test Example 5: herbicidal effect by foliage application, plastic box (symbol L); details: 320 g/ha, 3 weeks after application
Procedure, shortened: as §1

[8] = test system: soybean; test: Test Example 5: effect on crop by foliage application, plastic box (symbol d); details: 320 g/ha, 3 weeks after application
Procedure, shortened: (§4)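 Diluvial soil, sterilized and boxed (21 × 13 × 7 cm), received spot-sown seed covered by about 1.5 cm soil; plants were then greenhouse-grown at 25–30° C.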

[9] = test system: Avena fatua; test: Test Example 5: herbicidal effect by foliage application, plastic box (symbol I); details: 320 g/ha, 3 weeks after application
Procedure, shortened: as §1

[10] = test system: Apera spica-venti; test: Test Example 4: herbicidal effect by soil treatment (symbol L); details: application herbicide amount 320 g/ha
Procedure, shortened: as §2

[11] = test system: rapeseed; test: Test Example 4: effect on crop by soil treatment (symbol g); details: application herbicide amount 320 g/ha
Procedure, shortened: as §3

[12] = test system: Chenopodium album; test: Test Example 5: herbicidal effect by foliage application, plastic box (symbol O); details: 320 g/ha, 3 weeks after application
Procedure, shortened: as §1

[13] = test system: Digitaria ciliaris; test: Test Example 5: herbicidal effect by foliage application, plastic box (symbol F); details: 320 g/ha, 3 weeks after application
Procedure, shortened: as §1

[14] = test system: Veronica persica; test: Test Example 4: herbicidal effect by soil treatment (symbol R); details: application herbicide amount 320 g/ha
Procedure, shortened: as §2

[15] = test system: rapeseed; test: Test Example 5: effect on crop by foliage application, plastic box (symbol g); details: 320 g/ha, 3 weeks after application
Procedure, shortened: as §4

[16] = test system: Veronica persica; test: Test Example 5: herbicidal effect by foliage application, plastic box (symbol R); details: 320 g/ha, 3 weeks after application
Procedure, shortened: as §1

[17] = test system: Echinochloa crus-galli var. crus-galli; test: Test Example 5: herbicidal effect by foliage application, plastic box (symbol H); details: 320 g/ha, 3 weeks after application
Procedure, shortened: as §1

[18] = test system: Setaria viridis; test: Test Example 5: herbicidal effect by foliage application, plastic box (symbol G); details: 320 g/ha, 3 weeks after application
Procedure, shortened: as §1

Row | SMILES | M: Abutilon theophrasti, herbicidal effect grade [1] | G (Setaria viridis) herbicidal effect grade [2] | Herbicidal effect grade, C: Monochoria vaginalis [3] | Herbicidal effect grade, B: Scirpus juncoides [4] | I (Avena fatua) herbicidal effect grade [5] | b (directly sowed rice plant) effect on crop grade [6] | L: Apera spica-venti, herbicidal effect grade [7] | d: soybean, effect on crop grade [8] | I: Avena fatua, herbicidal effect grade [9] | L (Apera spica-venti) herbicidal effect grade [10] | g (rapeseed) effect on crop grade [11] | O: Chenopodium album, herbicidal effect grade [12] | F: Digitaria ciliaris, herbicidal effect grade [13] | R (Veronica persica) herbicidal effect grade [14] | g: rapeseed, effect on crop grade [15] | R: Veronica persica, herbicidal effect grade [16] | H: Echinochloa crus-galli var. crus-galli, herbicidal effect grade [17] | G: Setaria viridis, herbicidal effect grade [18]
1 | CON=C(C)CC1CC(OC)=C(c2c(C)cc(C)cc2C)C1=O (stereo not drawn) [1-001, 2-mesityl-3-methoxy-5-{2-(methoxyimino)propyl}cyclopent-2-enone] | 0 (Herbicidal ratio of 5% or lower (almost no effect)) | 0 (Herbicidal ratio of 5% or lower (almost no effect)) | 0 (Herbicidal ratio of 5% or lower (almost no effect)) | 0 (Herbicidal ratio of 5% or lower (almost no effect)) | 0 (Herbicidal ratio of 5% or lower (almost no effect)) | 0 (Herbicidal ratio of 5% or lower (almost no effect)) | 0 (Herbicidal ratio of 5% or lower (almost no effect)) | 0 (Herbicidal ratio of 5% or lower (almost no effect)) | 0 (Herbicidal ratio of 5% or lower (almost no effect)) | 0 (Herbicidal ratio of 5% or lower (almost no effect)) | 0 (Herbicidal ratio of 5% or lower (almost no effect)) | 0 (Herbicidal ratio of 5% or lower (almost no effect)) | 0 (Herbicidal ratio of 5% or lower (almost no effect)) | 0 (Herbicidal ratio of 5% or lower (almost no effect)) | 0 (Herbicidal ratio of 5% or lower (almost no effect)) | 0 (Herbicidal ratio of 5% or lower (almost no effect)) | 0 (Herbicidal ratio of 5% or lower (almost no effect)) | 0 (Herbicidal ratio of 5% or lower (almost no effect))
2 | CON=C(C)CC1CC(O)=C(c2c(C)cc(C)cc2C)C1=O (stereo not drawn) [1-002, 3-hydroxy-2-mesityl-5-{2-(methoxyimino)propyl}cyclopent-2-enone] | 4 (Herbicidal ratio of 70% or higher and lower than 90%) | 3 (Herbicidal ratio of 40% or higher and lower than 70%) | 3 (Herbicidal ratio of 40% or higher and lower than 70%) | 4 (Herbicidal ratio of 70% or higher and lower than 90%) | 5 (Herbicidal ratio of 90% or more (almost completely withered)) | 5 (Herbicidal ratio of 90% or more (almost completely withered)) | 5 (Herbicidal ratio of 90% or more (almost completely withered)) | 4 (Herbicidal ratio of 70% or higher and lower than 90%) | 5 (Herbicidal ratio of 90% or more (almost completely withered)) | 5 (Herbicidal ratio of 90% or more (almost completely withered)) | 5 (Herbicidal ratio of 90% or more (almost completely withered)) | 4 (Herbicidal ratio of 70% or higher and lower than 90%) | 5 (Herbicidal ratio of 90% or more (almost completely withered)) | 5 (Herbicidal ratio of 90% or more (almost completely withered)) | 5 (Herbicidal ratio of 90% or more (almost completely withered)) | 4 (Herbicidal ratio of 70% or higher and lower than 90%) | 5 (Herbicidal ratio of 90% or more (almost completely withered)) | 5 (Herbicidal ratio of 90% or more (almost completely withered))
3 | CCC(CC1CC(O)=C(c2c(C)cc(C)cc2C)C1=O)=NOC (stereo not drawn) [1-038] | 4 (Herbicidal ratio of 70% or higher and lower than 90%) | 5 (Herbicidal ratio of 90% or more (almost completely withered)) | 4 (Herbicidal ratio of 70% or higher and lower than 90%) | 5 (Herbicidal ratio of 90% or more (almost completely withered)) | 0 (Herbicidal ratio of 5% or lower (almost no effect)) | 5 (Herbicidal ratio of 90% or more (almost completely withered)) | 5 (Herbicidal ratio of 90% or more (almost completely withered)) | 4 (Herbicidal ratio of 70% or higher and lower than 90%) | 5 (Herbicidal ratio of 90% or more (almost completely withered)) | 5 (Herbicidal ratio of 90% or more (almost completely withered)) | 4 (Herbicidal ratio of 70% or higher and lower than 90%) | 0 (Herbicidal ratio of 5% or lower (almost no effect)) | 5 (Herbicidal ratio of 90% or more (almost completely withered)) | 0 (Herbicidal ratio of 5% or lower (almost no effect)) | 4 (Herbicidal ratio of 70% or higher and lower than 90%) | 1 (Herbicidal ratio of 5% or higher and lower than 20%) | 5 (Herbicidal ratio of 90% or more (almost completely withered)) | 5 (Herbicidal ratio of 90% or more (almost completely withered))
4 | COCCON=C(C)CC1CC(O)=C(c2c(C)cc(C)cc2C)C1=O (stereo not drawn) [1-041] | 4 (Herbicidal ratio of 70% or higher and lower than 90%) | 5 (Herbicidal ratio of 90% or more (almost completely withered)) | 0 (Herbicidal ratio of 5% or lower (almost no effect)) | 5 (Herbicidal ratio of 90% or more (almost completely withered)) | 5 (Herbicidal ratio of 90% or more (almost completely withered)) | 5 (Herbicidal ratio of 90% or more (almost completely withered)) | 5 (Herbicidal ratio of 90% or more (almost completely withered)) | 4 (Herbicidal ratio of 70% or higher and lower than 90%) | 5 (Herbicidal ratio of 90% or more (almost completely withered)) | 5 (Herbicidal ratio of 90% or more (almost completely withered)) | 4 (Herbicidal ratio of 70% or higher and lower than 90%) | 3 (Herbicidal ratio of 40% or higher and lower than 70%) | 5 (Herbicidal ratio of 90% or more (almost completely withered)) | 3 (Herbicidal ratio of 40% or higher and lower than 70%) | 4 (Herbicidal ratio of 70% or higher and lower than 90%) | 3 (Herbicidal ratio of 40% or higher and lower than 70%) | 5 (Herbicidal ratio of 90% or more (almost completely withered)) | 5 (Herbicidal ratio of 90% or more (almost completely withered))
